Values quoted from earlier work in patent publication US20060084635A1, “Aspirin and vitamin and/or trace element compositions for the amelioration and treatment of vascular disease” (priority 1993, published 2006).
“Also recorded” adds a separate entry of the source. Like-named read-outs stand apart in the source and are kept apart here.

Legend:
vascular tissue = system: vascular tissue; set-up: key: + Beneficial; 0 No Effect; − Detrimental
[1] = system: vascular lesions in branches of the aorta and cerebral arteries; details: rats; diet containing seven times the level of zinc required for normal growth
[2] = system: retirement community residents; details: for All Deaths RR / Ischemic Heart Disease RR / Myocardial Infarction RR / Other Heart Disease RR / Stroke RR / Total Cardiovascular Deaths RR: relative risk vs Aspirin− Vitamin−
[3] = system: prostaglandins in the vascular wall and platelets
[4] = system: vascular wall wound healing; details: rat, in vivo
[5] = system: serum cholesterol and triglycerides; details: for blood serum levels of cholesterol and triglycerides: in vivo
[6] = system: immune-triggered endothelial damage
[7] = in sufficient amounts
atherosclerotic lesions = details: animals fed an atherogenic diet

## [Mg+2] [Magnesium]
Vascular tissue; Table 2
  Anti-Aggregant: 0
  Decreased Formation of Clots: 0
  Decreased Immune-Induced Lesions: 0
  Decreased Peroxidation: 0
  Decreases Serum Cholesterol: +
  Inhibition of Cholesterol Migration: 0
  Platelet Activity: +
  Prostaglandin Synthesis: 0
  Speeding of Wound Healing: +

## [Zn] [Zinc]
Vascular tissue; Table 2
  Anti-Aggregant: 0
  Decreased Formation of Clots: 0
  Decreased Immune-Induced Lesions: 0
  Decreased Peroxidation: 0
  Decreases Serum Cholesterol: +
  Inhibition of Cholesterol Migration: 0
  Platelet Activity: 0
  Prostaglandin Synthesis: 0
  Speeding of Wound Healing: 0
[1]
  incidence and severity of vascular lesions / atherosclerosis: reduced incidence of atherosclerosis in rats; also recorded: greatly reduced

## [Se] [Selenium]
Vascular tissue; Table 2
  Anti-Aggregant: +
  Decreased Formation of Clots: 0
  Decreased Immune-Induced Lesions: +
  Decreased Peroxidation: +
  Decreases Serum Cholesterol: +
  Inhibition of Cholesterol Migration: 0
  Platelet Activity: +
  Prostaglandin Synthesis: +
  Speeding of Wound Healing: 0

## Cc1ncc(CO)c(CO)c1O.Cl [Vitamin B6]
Vascular tissue; Table 1
  Anti-Aggregant: 0
  Decreased Formation of Clots: 0
  Decreased Immune-Induced Lesions: 0
  Decreased Peroxidation: 0
  Decreases Serum Cholesterol: +
  Inhibition of Cholesterol Migration: 0
  Platelet Activity: 0
  Prostaglandin Synthesis: 0
  Speeding of Wound Healing: 0

## [Cu] [Copper]
Vascular tissue; Table 2
  Anti-Aggregant: 0
  Decreased Formation of Clots: 0
  Decreased Immune-Induced Lesions: +
  Decreased Peroxidation: 0
  Decreases Serum Cholesterol: +
  Inhibition of Cholesterol Migration: 0
  Platelet Activity: 0
  Prostaglandin Synthesis: 0
  Speeding of Wound Healing: +

## aspirin [Aspirin+ Vitamin−]
[2]; Men
  All Deaths No.: 45
  Ischemic Heart Disease No.: 8
  Myocardial Infarction No.: 7
  Other Heart Disease No.: 6
  Stroke No.: 2
  Total Cardiovascular Deaths No.: 24
  All Deaths RR: 1.00
  Ischemic Heart Disease RR: 1.40
  Myocardial Infarction RR: 0.88
  Other Heart Disease RR: 1.52
  Stroke RR: 0.50
  Total Cardiovascular Deaths RR: 1.09
[2]; Women
  All Deaths No.: 47
  Ischemic Heart Disease No.: 9
  Myocardial Infarction No.: 4
  Other Heart Disease No.: 6
  Stroke No.: 4
  Total Cardiovascular Deaths No.: 26
  All Deaths RR: 0.82
  Ischemic Heart Disease RR: 1.06
  Myocardial Infarction RR: 0.49
  Other Heart Disease RR: 0.81
  Stroke RR: 0.68
  Total Cardiovascular Deaths RR: 0.91

## [Cr] [Chromium]
Vascular tissue; Table 2
  Anti-Aggregant: 0
  Decreased Formation of Clots: 0
  Decreased Immune-Induced Lesions: 0
  Decreased Peroxidation: 0
  Decreases Serum Cholesterol: +
  Inhibition of Cholesterol Migration: 0
  Platelet Activity: 0
  Prostaglandin Synthesis: 0
  Speeding of Wound Healing: 0

## O=C1O[C@H]([C@@H](O)CO)C(O)=C1O [Vitamin C]
Vascular tissue; Table 1
  Anti-Aggregant: 0
  Decreased Formation of Clots: 0
  Decreased Immune-Induced Lesions: 0
  Decreased Peroxidation: 0
  Decreases Serum Cholesterol: +
  Inhibition of Cholesterol Migration: 0
  Platelet Activity: 0
  Prostaglandin Synthesis: +
  Speeding of Wound Healing: 0
[3]
  prostaglandin activity in the vascular wall: increases the level of activity of prostaglandins in the vascular wall
[3]; listed as vitamin C
  prostaglandin activity in the vascular wall: increased

## Vitamin A
[4]
  vascular wall wound healing / arterial healing: improve arterial healing; also recorded: speeds vascular wall wound healing
Vascular tissue; Table 1
  Anti-Aggregant: +
  Decreased Formation of Clots: 0
  Decreased Immune-Induced Lesions: 0
  Decreased Peroxidation: 0
  Decreases Serum Cholesterol: −
  Inhibition of Cholesterol Migration: 0
  Platelet Activity: 0
  Prostaglandin Synthesis: 0
  Speeding of Wound Healing: +
[5]; at higher doses
  serum cholesterol levels: net increase in serum cholesterol levels
platelets
  anti-aggregant activity: mild anti-aggregant activity
[6]
  immune-triggered endothelial damage / immune-induced lesions: preventative effect on immune-induced lesions

## aspirin [Aspirin++ Vitamin−]
[2]; Men
  All Deaths No.: 65
  Ischemic Heart Disease No.: 10
  Myocardial Infarction No.: 7
  Other Heart Disease No.: 7
  Stroke No.: 7
  Total Cardiovascular Deaths No.: 27
  All Deaths RR: 1.35
  Ischemic Heart Disease RR: 1.37
  Myocardial Infarction RR: 0.91
  Other Heart Disease RR: 1.57
  Stroke RR: 1.53
  Total Cardiovascular Deaths RR: 1.09
[2]; Women
  All Deaths No.: 77
  Ischemic Heart Disease No.: 14
  Myocardial Infarction No.: 10
  Other Heart Disease No.: 12
  Stroke No.: 9
  Total Cardiovascular Deaths No.: 45
  All Deaths RR: 1.36
  Ischemic Heart Disease RR: 1.50
  Myocardial Infarction RR: 1.25
  Other Heart Disease RR: 1.41
  Stroke RR: 1.58
  Total Cardiovascular Deaths RR: 1.48

## O=C(O)c1cccnc1 [Niacin, Niacin (nictotinic acid)]
Vascular tissue; Table 1
  Anti-Aggregant: 0
  Decreased Formation of Clots: 0
  Decreased Immune-Induced Lesions: 0
  Decreased Peroxidation: 0
  Decreases Serum Cholesterol: +
  Inhibition of Cholesterol Migration: 0
  Platelet Activity: 0
  Prostaglandin Synthesis: +
  Speeding of Wound Healing: 0
[5]
  blood serum levels of cholesterol and triglycerides: reduce the blood serum levels of cholesterol and triglycerides
[5]; listed as niacin
  blood serum levels of cholesterol and triglycerides: reduced
[7]
  undesirable effects of supplements: skin flush and dizziness

## Vitamin E
Atherosclerotic lesions
  severity of lesions: reduce the severity of lesions
Vascular tissue; Table 1
  Anti-Aggregant: +
  Decreased Formation of Clots: 0
  Decreased Immune-Induced Lesions: +
  Decreased Peroxidation: +
  Decreases Serum Cholesterol: +
  Inhibition of Cholesterol Migration: 0
  Platelet Activity: 0
  Prostaglandin Synthesis: +
  Speeding of Wound Healing: 0
[5]; supplementation in vitamin E deficient animals
  serum and liver cholesterol levels: decrease serum and liver cholesterol levels in a dose- and time-dependent manner
platelets
  anti-aggregant activity: mild anti-aggregant effect
[6]
  immune-triggered endothelial damage / immune-induced lesions: preventative effect on immune-induced lesions; also recorded: protective effect

## CC(=O)Oc1ccccc1C(=O)O [Aspirin, aspirin]
Vascular tissue; Table 1
  Anti-Aggregant: +
  Decreased Formation of Clots: +
  Decreased Immune-Induced Lesions: 0
  Decreased Peroxidation: 0
  Decreases Serum Cholesterol: 0
  Inhibition of Cholesterol Migration: +
  Platelet Activity: −
  Prostaglandin Synthesis: −
  Speeding of Wound Healing: −
[3]
  platelet prostaglandin function: irreversibly block platelet prostaglandin function
  prostaglandin activity in the vascular wall: reversibly decreases prostaglandin activity in the vascular wall
platelets; through platelet activity
  tendency of blood clot formation: reduces the tendency of blood clot formation
